Results: PubChem BioAssay (NCI)
Where “and” joins values, the source holds several entries; their conditions need not be identical. Equal values may be shown once.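 Following 48 hours of exposure in 96-well plates, responses at five concentrations were used to interpolate endpoints linearly. Here, GI50 denotes the concentration required for 50% inhibition of growth. The concentration for full growth arrest is given as TGI.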

Tests used:
Assay in all cases: NCI tumour cell line growth inhibition, 48 h
IGROV1 ovarian = test system: IGROV1 ovarian
SW-620 colon = test system: SW-620 colon
HOP-92 NSCLC = test system: HOP-92 NSCLC
OVCAR-5 ovarian = test system: OVCAR-5 ovarian
UACC-257 melanoma = test system: UACC-257 melanoma
OVCAR-8 ovarian = test system: OVCAR-8 ovarian
SF-268 CNS = test system: SF-268 CNS
SNB-19 CNS = test system: SNB-19 CNS
MDA-MB-435 = test system: MDA-MB-435
MDA-MB-231 breast = test system: MDA-MB-231 breast

| Structure (SMILES) | TGI (IGROV1 ovarian) [µM] | TGI (SW-620 colon) [µM] | TGI (HOP-92 NSCLC) [µM] | TGI (OVCAR-5 ovarian) [µM] | TGI (UACC-257 melanoma) [µM] | TGI (OVCAR-8 ovarian) [µM] | TGI (SF-268 CNS) [µM] | TGI (SNB-19 CNS) [µM] | TGI (MDA-MB-435) [µM] | TGI (MDA-MB-231 breast) | GI50 (IGROV1 ovarian) [µM] | GI50 (SW-620 colon) [µM] | GI50 (OVCAR-5 ovarian) [µM] | GI50 (UACC-257 melanoma) [µM] | GI50 (OVCAR-8 ovarian) [µM] | GI50 (SF-268 CNS) [µM] | GI50 (MDA-MB-231 breast) [µM] | GI50 (HOP-92 NSCLC) | GI50 (MDA-MB-435) |
| --- | --- | --- | --- | --- | --- | --- | --- | --- | --- | --- | --- | --- | --- | --- | --- | --- | --- | --- | --- |
| Cc1cccc2c1nc1n2C(=O)c2ccccc2-1 | > 100 | > 100 | > 100 | > 100 | > 100 | > 100 | > 100 | > 100 |  |  |  |  |  |  |  |  |  |  |  |
| O=C(O)C1CCC(=O)N1C(=O)COc1cc(Cl)c(Cl)cc1Cl (stereo unspecified) | > 100 | > 100 | > 100 | > 100 | > 100 | > 100 | > 100 | > 100 |  |  |  |  |  |  |  |  |  |  |  |
| [C-]#[O+].[Cl][Sn]([Cl])[Cl].[Cl][Sn]([Cl])[Cl].[Pt].c1cnc2c(c1)ccc1cccnc12 | 35.7 | > 100 | 51.5 | > 59.5 | > 100 | > 100 | > 79 | > 27.1 |  |  |  |  |  |  |  |  |  |  |  |
| C[n+]1c2ccccc2n2c3ccccc3c(NCCCn3ccnc3)c(C#N)c21 |  |  | > 20.2 | 18.7 | 35.5 | 8.43 | 6.98 | > 31.2 | 9.4 | 9.18 µM |  |  |  |  |  |  |  |  |  |
| COc1ccc(S(=O)(=O)NC(CCC(=O)NC(N)=O)C(=O)NC(N)=O)cc1 (stereo unspecified) | > 100 | > 100 | > 100 | > 100 | > 100 | > 100 |  | > 100 | > 100 | > 100 µM |  |  |  |  |  |  |  |  |  |
| O=C1c2ccccc2-c2c1c1ccccc1c(=O)n2CCCNCCNCCCn1c2c(c3ccccc3c1=O)C(=O)c1ccccc1-2 | > 32.9 | 0.258 |  | 2.93 | 3.47 | 1.66 | 2.5 |  |  | 0.437 µM | < 0.0367 | < 0.01 | 1.29 | 1.24 | < 0.01 | 0.0166 | < 0.0381 |  |  |
| O=C(/C=C\c1ccccc1)Oc1ccc(/C=C2\CCC/C(=C\c3ccc(OC(=O)/C=C\c4ccccc4)cc3)C2=O)cc1 |  | > 100 | > 100 | > 100 | > 100 | > 100 | > 100 | > 100 | > 100 | > 100 µM |  |  |  |  |  |  |  |  |  |
| CC(C)Oc1cccc(N2C(CCc3c[nH]c4ccc(Br)cc34)=NS(=O)(=O)c3cnccc32)c1 |  | > 100 | > 100 | > 100 | > 100 | > 100 | > 100 | > 100 | > 100 | > 100 µM |  |  |  |  |  |  |  |  |  |
| Cc1ccc(NC(=O)CC/C(CC(=O)C(C)(C)C)=N/NC(=O)c2cc3ccccc3cc2O)cc1C | > 100 | > 100 | > 100 | > 100 | > 100 | > 100 | > 100 | > 100 |  |  |  |  |  |  |  |  |  |  |  |
| Nc1c(C(=O)O)c2ccc([N+](=O)[O-])cc2c(=O)n1-c1nc2ccccc2s1 | > 100 | > 100 |  | > 100 |  | > 100 | > 100 | > 100 | > 100 | > 100 µM |  |  |  |  |  |  |  |  |  |
| COC1=C(OC)C(=O)C(Cc2c(Cl)nc3sccn23)=C(C)C1=O | 29.1 | 30.4 |  | 31.7 | 16.1 | 26.2 | 30.4 | 28.1 | 21.8 | 8.28 µM |  |  |  |  |  |  |  |  |  |
| COc1ccc(O[C@H](CO)C[C@@H]2COC(C)(C)O2)cc1 | > 100 | > 100 |  | > 100 | > 100 | > 100 | > 100 | > 100 | > 100 | > 100 µM |  |  |  |  |  |  |  |  |  |
| COc1cccc2c(=O)oc(-c3ccccc3C)nc12 | 96.8 | > 100 | > 100 | > 100 |  | > 100 | > 100 |  | > 100 | > 100 µM |  |  |  |  |  |  |  |  |  |
| Cn1c(CO)ccc1-c1ccc(-c2ccc(CO)[se]2)[se]1 | 12.4 | > 100 |  |  | > 100 | 55.6 | > 100 | > 100 | 45.6 | > 67.2 µM |  |  |  |  |  |  |  |  |  |
| Cc1nc(C(=Nc2ccc(Br)cc2)Nn2cnnc2)no1 | > 100 | > 100 | > 100 | > 100 | > 100 | > 100 |  | > 100 | > 100 | > 100 µM |  |  |  |  |  |  |  |  |  |
| COc1ccc(/C(C=O)=C(\Cl)c2ccc(OC)c(OC)c2)cc1 | > 100 | > 100 |  | > 100 | > 100 | > 100 | > 100 | > 100 |  |  |  |  |  |  |  |  |  |  |  |
| CC(C)(C)C(=O)c1c(O)c2ccccc2c2ccccc2c1=O |  | > 100 | > 100 | > 100 | > 100 | > 100 | > 100 | > 100 | > 100 | > 100 µM |  |  |  |  |  |  |  |  |  |
| CN(C)c1cccc2c(S(=O)(=O)NCCN)cccc12 | 91.9 | > 100 | > 100 | > 100 | > 100 |  | > 100 | > 100 | > 100 | > 100 µM |  |  |  |  |  |  |  |  |  |
| CCC12CCC[C@@]13C=C[C@H](O3)C(C)(C)C2=O (stereo partly specified) | > 100 | > 100 |  | > 100 | > 100 | > 100 | > 100 | > 100 |  |  |  |  |  |  |  |  |  |  |  |
| COC(=O)C(Cc1ccccc1)NC(=O)C(CNC(=O)OCc1ccccc1)C(=O)OCc1ccccc1 (stereo unspecified) | > 100 |  | > 100 | > 100 |  | > 100 |  | > 100 | > 100 | > 100 µM and 64.6 µM |  |  |  |  |  |  |  | > 100 µM and 31.9 µM | > 100 µM and 44.5 µM |
| COc1ccc2oc(=O)c(-c3cc4c(c(C)n3)c(=O)oc3ccc(OC)cc34)cc2c1 | > 100 | > 100 | > 100 |  | > 100 | > 100 | > 100 | 57.6 | > 100 | > 100 µM |  |  |  |  |  |  |  |  |  |
| CC[C@]1(c2ccc3c(c2)OCO3)C=[N+]([O-])O[C@H](OC2CCCC2(c2ccccc2)c2ccccc2)[C@@H]1OC(C)=O (stereo partly specified) | > 21.5 | > 100 | 76.1 | > 28.3 | 7.62 |  | 6.64 | 12.7 | 4.1 | > 21.7 µM |  |  |  |  |  |  |  |  |  |
| NCCCNc1nc2ccccc2c2c(=O)c3cc(Cl)ccc3sc12 |  |  | 3.35 | 3.14 | 3.74 |  |  |  | 3.18 | 2.69 µM |  |  | 1.67 | 2 |  |  | 1.34 | 1.28 µM | 1.75 µM |
